The values that follow come from patent publication US8956656B2, “Production of small particles” (Nano Fiber Matrices B.V., priority 2003, dated 2015).

Assay type in all cases: physicochemical
A short description of data set [1]: Gel test of gelators. The conditions noted are these: 3 mg/mL in H2O. The procedure:
Gel test: 0.3 mg/mL in H2O or PBS: clear gel; 0.5 mg/mL in H2O/DMSO (19:1): clear gel; 0.6 mg/mL in H2O/EtOH (19:1): clear gel; 25 mg/ml in EtOH: gel.
Gel test: 3 mg/mL in H2O: gel.
Gel test: 1.0 mg/mL in H2O: gel; acetone 7.0 mg/mL: clear gel.
Gel test: 3 mg/mL in H2O: clear gel.
Gel test: 3.0 mg/mL in H2O: gel

The nature of data set [2]: TEM analysis of particle size in gel or freeze-dried powder. Here is the method:
To a solution containing 4.6 mg (7.6×10^−3 mmol) of cHexAmMetOH gelator and 1.3 mg (3.8×10^−3 mmol) of danazol in 100 μL of DMSO, 900 μL of distilled water were quickly added. […] In a reference sample consisting only of danazol in 100 μL of DMSO and 900 μL of distilled water, rod-shaped danazol particles are 0.5-10 μm wide and 15-53 μm long.
To a solution containing 7 mg (7.6×10^−3 mmol) of cHexAmPheOCH2CH2OCH2CH2OH gelator and 1.3 mg (3.8×10^−3 mmol) of danazol in 100 μL of DMSO, 900 μL of distilled water were quickly added. […] In a reference sample consisting only of danazol in 100 μL of DMSO and 900 μL of distilled water, rod-shaped danazol particles are 0.5-10 μm wide and 15-53 μm long.
Example 6 was repeated but with an increased molar ratio of gelator to danazol, of 5:1.
To a solution containing 1.96 mg (2.9×10^−3 mmol) of cHexAm(PheAQ)(CH2CH2OCH2CH2OH)2 gelator and 1.0 mg (2.9×10^−3 mmol) of danazol in 50 μL of DMSO, 950 μL of distilled water were quickly added.
In a reference sample consisting only of danazol in 100 μL of DMSO to which 900 μL of distilled water was added, rod-shaped danazol particles were formed, which were 0.5-10 μm wide and 15-53 μm long.
Example 8 was repeated with an increased molar ratio of gelator to danazol (from 1:1 to 2:1).
Freeze-drying of a gel containing cHexAmPheOCH2CH2OCH2CH2OH and danazol in a 5:1 molar ratio, in DMSO/water mixture (50 μL/950 μL) yielded a dry powder of gelator and danazol.
Freeze-drying of a gel containing cHexAm(PheAQ)(CH2CH2O CH2CH2OH)2 and danazol in a 5:1 molar ratio, in DMSO/water (50 μL/950 μL) yielded a dry powder of gelator and danazol. […]

Data set [3] can be described thus: Optical microscopy of gels and reference solutions. The procedure: Furosemide, 5 mg, (15×10^−3 mmol), together with 12.5 mg (20×10^−3 mmol) of cHexAm(PheAmBn)(CH2CH2OCH2CH2OH)2 (A), or 12.9 mg (20×10^−3 mmol) of cHexAm(PheAmPhOMe)(CH2CH2OCH2CH2OH)2 (B), or 18.4 mg (20×10^−3 mmol) of cHexAmPheOCH2CH2OCH2CH2OH(C), were dissolved in 50 μL of propylene glycol, 50 μL of PEG400, and 900 μL of water by heating until a clear solution was obtained. As reference, a sample without gelator was prepared (D).
Danazol, 1 mg, (3×10^−3 mmol), together with 3.9 mg (6×10^−3 mmol) of cHexAm(PheAmAQ)(CH2CH2OCH2CH2OH)2 (A), or 5.4 mg (6×10^−3 mmol) of cHexAmPheOCH2CH2OCH2CH2OH (B), were dissolved in 50 μL of DMSO and 950 μL of distilled water by heating until a clear solution was obtained. As reference, a sample without gelator was prepared (C).
Cyclosporin A, 2.5 mg, (2.1×10^−3 mmol), together with 6.3 mg (10×10^−3 mmol) of cHexAm(PheAmBn)(CH2CH2OCH2CH2OH)2 (A) or 9.2 mg (10×10^−3 mmol) of cHexAmPheOCH2CH2OCH2CH2OH (B), were dissolved in 25 μL of propylene glycol, 25 μL of PEG400, and 450 μL of distilled water by heating until a clear solution was obtained. As reference, a sample without gelator was prepared (C).

Data set [4] is described as follows: Stability in time of pyrene particles in a gel (TEM). Here is the method:
To determine the stability in time of pyrene particles in a gel, samples were prepared as in Example 3 and examined with TEM after 7 days, 18 days, 1 month and 2 months. As reference, samples containing only pyrene in DMSO/H2O (100 μL/900 μL) were also prepared. Moreover, to determine the effect of the gelator in solution, i.e. not of the gel, samples containing 4 mg (6.0×10^−3 mmol) of cHexAm(PheAQ)(CH2CH2OCH2CH2OH)2 gelator, 1.22 mg (6.0×10^−3 mmol) of pyrene, 100 μL of DMSO and 900 μL of 1N HCl were prepared. The presence of HCl causes the gelator to dissolve and therefore the sample remains a solution. All samples were kept at room temperature, in the dark. FIG. 1: after 7 days only very few particles, 37-185 nm, are present in the sample; after 18 days more particles, 30-190 nm, can be observed; after 1 month also some crystals, ˜150 nm, can be observed; after 2 months more crystals with sizes ranging from 80 to 200 nm are present. FIG. 2: after 7 days crystals, 0.2-3 μm, can be observed; after 18 days more of such crystals can be observed; after 1 month also larger crystals, 6 μm, can be seen; after 2 months more of such crystals can be observed. FIG. 3: after 7 days, 18 days or 1 month crystals, 0.4 to 9 μm, are present; after 2 months crystals, 2-12 μm, can be observed.

Where [5] appears, read: gel of cHexAm(PheAQ)(CH2CH2OCH2CH2OH)2, 1:1 molar.
Setting [6] is: gel of cHexAm(PheAQ)(CH2CH2OCH2CH2OH)2, gelator:danazol 2:1.
[7] abbreviates: gel of cHexAm(PheAQ)(CH2CH2OCH2CH2OH)2, gelator:danazol 5:1.
[8] abbreviates: gel of cHexAmPheOCH2CH2OCH2CH2OH, 2:1 molar.
Setting [9] is: gel of cHexAmPheOCH2CH2OCH2CH2OH, gelator:danazol 5:1.
The mark [10] stands for this setting: reference sample, only danazol in 100 μL DMSO and 900 μL water.
Setting [11] is: FIG. 6 (b): gel of cHexAmPheOCH2CH2OCH2CH2OH, DMSO/water.

Take `O=C(O)[C@@H]1C[C@H](C(=O)O)C[C@H](C(=O)N[C@@H](Cc2ccccc2)C(=O)NCc2ccccc2)C1` [cHex(AmPheAmBn)(COOH)2]: in data set [1], the Gel test result is reported as “gel”.

`COc1ccc(NC(=O)[C@H](Cc2ccccc2)NC(=O)[C@@H]2C[C@H](C(=O)O)C[C@H](C(=O)O)C2)cc1` [cHex(AmPheAmPhOMe)(COOH)2]: the Gel test entry in data set [1] was “clear gel”.

For `C#C[C@]1(O)CC[C@H]2[C@@H]3CCC4=Cc5oncc5C[C@]4(C)[C@H]3CC[C@@]21C` [danazol], the “average size of danazol particles” value in data set [2] (freeze-dried powder of gel of cHexAm(PheAQ)(CH2CH2O CH2CH2OH)2, 5:1, DMSO/water 50/950 μL) is on record as 14-70 nm; in data set [2] (freeze-dried powder of gel of cHexAmPheOCH2CH2OCH2CH2OH, 5:1, DMSO/water 50/950 μL) it was 20 nm; in data set [2] (gel of cHexAm(PheAQ)(CH2CH2OCH2CH2OH)2, 1:1 molar, DMSO/water 50/950 μL), 140-700 nm; in data set [2] (setting [6]), 28 nm; in data set [2] (setting [7]), 14 nm; in data set [2] (setting [9]), 20 nm. Moreover, in data set [2] (freeze-dried powder of gel of cHexAmPheOCH2CH2OCH2CH2OH, 5:1), the “width of very few rod-shaped danazol particles” value was 500-900 nm. In addition, in data set [2] (setting [5]), the “length of some rod-shaped danazol particles” value came to 9 μm. Besides, in data set [2] (setting [5]), the “width of some rod-shaped danazol particles” value worked out at 0.7 μm. Moreover, in data set [2] (setting [6]), the “size of very few danazol particles” value stood at 10 μm. Besides, the entries for the “size of some danazol particles” value in data set [2] (setting [7]) and in data set [2] (setting [9]) were 400 nm and “approximately 200 nm”, respectively. The “length of rod-shaped danazol particles” value in data set [2] (gel of cHexAmMetOH, 2:1 molar, DMSO/water 100/900 μL) was 1-10 μm; in data set [2] (setting [8]) it was 0.6-6 μm; in data set [2] (setting [10]), 15-53 μm. For the same compound, the “width of rod-shaped danazol particles” value in data set [2] (setting [8]) is 0.2-0.6 μm; in data set [2] (setting [10]), 0.5-10 μm. For the same compound, the amorphous globular particles in data set [3] (FIG. 6 (a): gel of cHexAm(PheAmAQ)(CH2CH2OCH2CH2OH)2, DMSO/water) is listed as under 2 μm; in data set [3] (setting [11]), under 2 μm. For the same compound, the “some needle-shaped crystals (long axis)” value in data set [3] (setting [11]) was 25-50 μm. Further, the rod-shaped crystals in data set [3] (FIG. 6 (c): reference without gelator, DMSO/water) is recorded as 20-120 μm.

With `NS(=O)(=O)c1cc(C(=O)O)c(NCc2ccco2)cc1Cl` [furosemide], the “butterfly-shaped crystals (long axis)” value is recorded as about 25 μm in data set [3] (FIG. 5 (a): gel of cHexAm(PheAmBn)(CH2CH2OCH2CH2OH)2, PG/PEG400/water) and about 25 μm in data set [3] (FIG. 5 (b): gel of cHexAm(PheAmPhOMe)(CH2CH2OCH2CH2OH)2, PG/PEG400/water). The compound also showed a globular crystals in data set [3] (FIG. 5 (c): gel of cHexAmPheOCH2CH2OCH2CH2OH, PG/PEG400/water) of about 25 μm. Moreover, in data set [3] (FIG. 5 (d): reference without gelator, PG/PEG400/water), the “rod-shaped crystals (long axis)” value was 25-250 μm.

Consider `c1cc2ccc3cccc4ccc(c1)c2c34` [pyrene], for which the “size of pyrene particles” value is listed as 37-185 nm in data set [4] (gel of cHexAm(PheAQ)(CH2CH2OCH2CH2OH)2, DMSO/H2O, room temperature, dark, after 7 days (FIG. 1)) and 30-190 nm in data set [4] (gel of cHexAm(PheAQ)(CH2CH2OCH2CH2OH)2, after 18 days (FIG. 1)). The “size of pyrene crystals” value in data set [4] (gel of cHexAm(PheAQ)(CH2CH2OCH2CH2OH)2, after 1 month (FIG. 1)) was about 150 nm; in data set [4] (gelator in solution, DMSO/1N HCl, after 7 days (FIG. 2)) it was 0.2-3 μm; in data set [4] (reference, only pyrene in DMSO/H2O, after 2 months (FIG. 3)) it was 2-12 μm. For the same compound, in data set [4] (gelator in solution, DMSO/1N HCl, after 1 month (FIG. 2)), the “size of larger pyrene crystals” value came out at 6 μm.
